{
  "source": "ChEMBL document CHEMBL1201862",
  "about": "“PubChem BioAssay data set” (2004)",
  "key": {"[1]": {"assay": "viability loss in THP-1 monocytes – THP-1 cells, cytotoxicity control for Vif-APOBEC3G degradation inhibitor project, dose response (AID 1117359)", "type": "functional", "conditions": "THP-1"}, "[2]": {"target": "DNA (cytosine-5)-methyltransferase 1 (Homo sapiens, UniProt P26358)", "sequence (P26358 whole entry)": "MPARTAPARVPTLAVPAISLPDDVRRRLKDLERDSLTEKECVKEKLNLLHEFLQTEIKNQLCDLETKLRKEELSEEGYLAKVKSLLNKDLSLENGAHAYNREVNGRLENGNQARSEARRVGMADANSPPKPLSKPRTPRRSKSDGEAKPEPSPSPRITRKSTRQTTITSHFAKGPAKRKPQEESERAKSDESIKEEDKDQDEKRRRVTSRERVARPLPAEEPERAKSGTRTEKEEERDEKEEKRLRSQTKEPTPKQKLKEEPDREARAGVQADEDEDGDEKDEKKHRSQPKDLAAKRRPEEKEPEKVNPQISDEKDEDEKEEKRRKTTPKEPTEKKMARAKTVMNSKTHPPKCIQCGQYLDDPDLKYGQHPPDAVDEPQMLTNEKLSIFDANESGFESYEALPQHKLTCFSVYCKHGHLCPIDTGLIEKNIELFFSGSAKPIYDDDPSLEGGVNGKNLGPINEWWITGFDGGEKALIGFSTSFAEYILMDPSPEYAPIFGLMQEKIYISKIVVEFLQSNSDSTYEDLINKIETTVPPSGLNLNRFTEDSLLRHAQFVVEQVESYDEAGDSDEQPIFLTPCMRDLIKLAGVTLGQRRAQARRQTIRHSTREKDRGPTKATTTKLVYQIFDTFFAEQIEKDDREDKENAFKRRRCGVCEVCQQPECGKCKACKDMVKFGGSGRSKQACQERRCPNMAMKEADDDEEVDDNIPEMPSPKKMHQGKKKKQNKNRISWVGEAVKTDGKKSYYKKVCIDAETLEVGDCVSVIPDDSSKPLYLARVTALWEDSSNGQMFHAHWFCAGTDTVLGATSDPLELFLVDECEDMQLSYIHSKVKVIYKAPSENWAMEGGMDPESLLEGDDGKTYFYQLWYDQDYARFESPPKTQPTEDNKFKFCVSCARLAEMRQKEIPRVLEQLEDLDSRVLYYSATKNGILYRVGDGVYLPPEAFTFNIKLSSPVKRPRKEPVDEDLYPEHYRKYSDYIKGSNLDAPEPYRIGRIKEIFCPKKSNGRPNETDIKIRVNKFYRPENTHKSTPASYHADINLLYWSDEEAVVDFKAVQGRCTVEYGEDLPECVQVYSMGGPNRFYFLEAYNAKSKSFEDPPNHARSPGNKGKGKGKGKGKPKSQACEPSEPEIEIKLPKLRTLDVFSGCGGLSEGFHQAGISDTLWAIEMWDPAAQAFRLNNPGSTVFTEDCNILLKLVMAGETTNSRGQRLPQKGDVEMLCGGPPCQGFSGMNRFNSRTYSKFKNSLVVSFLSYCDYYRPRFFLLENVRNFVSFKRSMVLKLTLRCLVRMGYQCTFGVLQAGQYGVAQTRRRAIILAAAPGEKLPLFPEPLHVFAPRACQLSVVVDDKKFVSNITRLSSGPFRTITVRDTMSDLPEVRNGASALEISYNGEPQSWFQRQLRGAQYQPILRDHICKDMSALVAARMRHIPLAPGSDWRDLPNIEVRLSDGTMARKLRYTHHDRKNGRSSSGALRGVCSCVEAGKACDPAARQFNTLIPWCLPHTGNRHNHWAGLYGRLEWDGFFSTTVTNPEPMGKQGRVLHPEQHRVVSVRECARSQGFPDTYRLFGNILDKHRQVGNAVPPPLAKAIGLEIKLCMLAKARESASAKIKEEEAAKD", "assay": "inhibition of DNA methylation by DNMT1 – biochemical, fluorescent molecular beacon, confirmation (AID 602386)", "type": "functional"}, "[3]": {"target": "T1, Carboxy-terminal domain RNA polymerase II polypeptide A small phosphatase 1 (Homo sapiens, UniProt Q9GZU7)", "T1 sequence (Q9GZU7 whole entry)": "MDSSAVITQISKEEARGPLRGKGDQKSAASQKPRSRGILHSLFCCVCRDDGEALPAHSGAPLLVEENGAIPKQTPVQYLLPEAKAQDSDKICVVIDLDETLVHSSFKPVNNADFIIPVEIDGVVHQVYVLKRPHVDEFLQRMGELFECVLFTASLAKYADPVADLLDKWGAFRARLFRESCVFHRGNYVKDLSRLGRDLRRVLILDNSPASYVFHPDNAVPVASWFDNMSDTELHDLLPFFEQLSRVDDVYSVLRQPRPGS", "assay": "CTDSP1 inhibitors, concentration-response, biochemical, absorbance readout, ultra-high-throughput screen actives (AID 540297)", "type": "functional"}, "[4]": {"target": "T2, Coagulation factor XII (Homo sapiens, UniProt P00748)", "T2 sequence (P00748 whole entry)": "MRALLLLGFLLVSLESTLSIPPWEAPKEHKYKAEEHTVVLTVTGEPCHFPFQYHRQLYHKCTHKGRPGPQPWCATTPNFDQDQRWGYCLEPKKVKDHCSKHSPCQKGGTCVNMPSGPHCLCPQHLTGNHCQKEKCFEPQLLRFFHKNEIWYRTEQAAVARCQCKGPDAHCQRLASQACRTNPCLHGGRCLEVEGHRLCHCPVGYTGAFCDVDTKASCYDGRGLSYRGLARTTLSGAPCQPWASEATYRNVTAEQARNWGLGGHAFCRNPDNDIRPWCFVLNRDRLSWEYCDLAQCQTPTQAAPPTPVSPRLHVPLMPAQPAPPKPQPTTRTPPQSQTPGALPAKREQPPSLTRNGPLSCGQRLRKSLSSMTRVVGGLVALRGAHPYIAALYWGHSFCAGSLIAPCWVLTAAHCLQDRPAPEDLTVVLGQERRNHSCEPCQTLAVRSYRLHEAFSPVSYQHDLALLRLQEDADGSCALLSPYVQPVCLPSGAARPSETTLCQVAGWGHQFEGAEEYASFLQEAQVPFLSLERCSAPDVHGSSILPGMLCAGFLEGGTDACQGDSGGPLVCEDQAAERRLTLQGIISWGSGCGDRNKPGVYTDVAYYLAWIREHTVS", "type": "functional"}, "[5]": {"target": "Ras and Rab interactor 1/Tyrosine-protein kinase ABL1 (Homo sapiens, UniProt P00519+Q13671)", "sequence (P00519 whole entry)": "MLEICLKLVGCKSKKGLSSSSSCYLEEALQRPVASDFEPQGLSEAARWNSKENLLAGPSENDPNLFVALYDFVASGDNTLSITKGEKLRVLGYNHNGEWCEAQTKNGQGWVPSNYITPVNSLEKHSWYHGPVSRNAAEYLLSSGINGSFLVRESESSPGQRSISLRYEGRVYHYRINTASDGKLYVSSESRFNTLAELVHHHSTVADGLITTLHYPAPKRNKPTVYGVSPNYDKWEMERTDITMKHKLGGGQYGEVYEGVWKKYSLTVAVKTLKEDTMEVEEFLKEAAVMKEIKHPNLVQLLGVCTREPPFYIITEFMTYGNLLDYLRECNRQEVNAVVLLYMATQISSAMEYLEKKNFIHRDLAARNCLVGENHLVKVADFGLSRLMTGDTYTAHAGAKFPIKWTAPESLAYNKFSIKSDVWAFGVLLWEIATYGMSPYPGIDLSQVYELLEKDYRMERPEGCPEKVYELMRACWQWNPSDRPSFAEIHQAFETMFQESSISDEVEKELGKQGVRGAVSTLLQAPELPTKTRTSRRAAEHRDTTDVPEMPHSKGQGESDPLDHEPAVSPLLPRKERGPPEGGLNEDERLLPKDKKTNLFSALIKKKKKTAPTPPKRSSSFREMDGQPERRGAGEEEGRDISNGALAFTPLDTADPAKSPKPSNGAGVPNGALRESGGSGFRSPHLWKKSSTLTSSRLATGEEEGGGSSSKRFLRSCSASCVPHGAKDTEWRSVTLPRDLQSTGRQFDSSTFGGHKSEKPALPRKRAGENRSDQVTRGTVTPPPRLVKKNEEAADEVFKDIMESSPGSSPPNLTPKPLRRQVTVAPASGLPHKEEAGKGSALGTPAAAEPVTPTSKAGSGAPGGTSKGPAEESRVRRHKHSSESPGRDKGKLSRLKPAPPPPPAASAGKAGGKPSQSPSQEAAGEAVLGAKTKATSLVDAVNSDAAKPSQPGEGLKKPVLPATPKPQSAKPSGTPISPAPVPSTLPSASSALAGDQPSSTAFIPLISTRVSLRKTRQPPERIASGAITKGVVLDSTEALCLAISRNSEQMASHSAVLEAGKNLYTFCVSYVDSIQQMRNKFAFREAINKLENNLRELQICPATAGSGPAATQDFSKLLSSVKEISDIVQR", "sequence (Q13671 whole entry)": "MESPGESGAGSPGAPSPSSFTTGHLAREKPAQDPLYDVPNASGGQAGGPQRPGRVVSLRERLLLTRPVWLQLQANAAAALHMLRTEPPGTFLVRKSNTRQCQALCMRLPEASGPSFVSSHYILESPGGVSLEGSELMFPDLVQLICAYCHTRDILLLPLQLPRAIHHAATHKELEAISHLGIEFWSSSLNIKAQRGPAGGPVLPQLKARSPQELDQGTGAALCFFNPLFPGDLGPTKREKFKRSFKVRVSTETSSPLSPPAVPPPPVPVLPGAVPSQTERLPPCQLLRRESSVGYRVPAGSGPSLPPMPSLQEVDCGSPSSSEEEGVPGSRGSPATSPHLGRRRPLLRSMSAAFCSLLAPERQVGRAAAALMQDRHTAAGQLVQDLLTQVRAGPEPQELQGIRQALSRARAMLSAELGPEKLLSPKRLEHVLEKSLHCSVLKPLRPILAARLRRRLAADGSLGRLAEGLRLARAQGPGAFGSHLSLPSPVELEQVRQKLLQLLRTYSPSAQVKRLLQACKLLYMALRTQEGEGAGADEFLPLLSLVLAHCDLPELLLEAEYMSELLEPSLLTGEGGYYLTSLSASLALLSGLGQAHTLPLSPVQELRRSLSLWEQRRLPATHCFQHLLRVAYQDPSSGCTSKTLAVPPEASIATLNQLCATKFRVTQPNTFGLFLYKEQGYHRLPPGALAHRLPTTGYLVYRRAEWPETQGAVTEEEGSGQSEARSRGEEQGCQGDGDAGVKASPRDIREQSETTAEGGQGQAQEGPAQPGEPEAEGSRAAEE", "type": "functional"}, "[6]": {"assay": "activation of miR-122 Renilla sensor silencing – cell-based, Huh7 psiCHECK-miR122, Renilla luciferase, cherry-picked, dose response (AID 651956);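 further: huh7 hepatoma cells stably carrying a psiCHECK-2 miR-122 sensor plasmid; renilla luciferase signal reporting endogenous miR-122 activity after 48 h compound exposure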", "type": "functional"}, "[7]": {"target": "T3, Long-chain-fatty-acid--AMP ligase FadD28 (Mycobacterium tuberculosis, UniProt P9WQ59)", "T3 sequence (P9WQ59 whole entry)": "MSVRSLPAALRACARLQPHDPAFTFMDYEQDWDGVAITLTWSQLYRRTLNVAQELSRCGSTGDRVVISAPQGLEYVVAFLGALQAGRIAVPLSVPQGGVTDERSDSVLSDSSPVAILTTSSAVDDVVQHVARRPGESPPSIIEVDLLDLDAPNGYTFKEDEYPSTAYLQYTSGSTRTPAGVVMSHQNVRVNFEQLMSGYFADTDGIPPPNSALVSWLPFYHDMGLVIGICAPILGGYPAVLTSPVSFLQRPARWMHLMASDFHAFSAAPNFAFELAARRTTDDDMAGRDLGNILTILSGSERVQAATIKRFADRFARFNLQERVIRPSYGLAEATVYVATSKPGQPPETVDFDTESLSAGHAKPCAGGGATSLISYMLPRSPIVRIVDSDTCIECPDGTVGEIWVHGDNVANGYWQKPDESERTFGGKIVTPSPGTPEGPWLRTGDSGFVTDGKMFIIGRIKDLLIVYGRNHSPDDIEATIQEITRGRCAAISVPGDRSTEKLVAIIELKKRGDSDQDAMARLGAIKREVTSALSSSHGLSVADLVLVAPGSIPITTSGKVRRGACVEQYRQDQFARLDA", "assay": "Fluorescence polarization aasay to screen for inhibitors that compete for the binding of FadD28 to a bisubstrate Measured in Biochemical System Using Plate Reader - 2147-01_Inhibitor_Dose_CherryPick_Activity.", "type": "functional, Mycobacterium tuberculosis H37Rv"}, "[8]": {"tested_on": "HeLa", "assay": "ATP-based viability loss in HeLa cells – cell-based, CellTiter-Glo luminescence, cherry-pick samples, cytotoxicity control for MITF activator project, dose response (AID 540259)", "type": "functional", "conditions": "Homo sapiens"}, "[9]": {"target": "Cytochrome P450 2C9 (Homo sapiens, UniProt P11712)", "sequence (P11712 whole entry)": "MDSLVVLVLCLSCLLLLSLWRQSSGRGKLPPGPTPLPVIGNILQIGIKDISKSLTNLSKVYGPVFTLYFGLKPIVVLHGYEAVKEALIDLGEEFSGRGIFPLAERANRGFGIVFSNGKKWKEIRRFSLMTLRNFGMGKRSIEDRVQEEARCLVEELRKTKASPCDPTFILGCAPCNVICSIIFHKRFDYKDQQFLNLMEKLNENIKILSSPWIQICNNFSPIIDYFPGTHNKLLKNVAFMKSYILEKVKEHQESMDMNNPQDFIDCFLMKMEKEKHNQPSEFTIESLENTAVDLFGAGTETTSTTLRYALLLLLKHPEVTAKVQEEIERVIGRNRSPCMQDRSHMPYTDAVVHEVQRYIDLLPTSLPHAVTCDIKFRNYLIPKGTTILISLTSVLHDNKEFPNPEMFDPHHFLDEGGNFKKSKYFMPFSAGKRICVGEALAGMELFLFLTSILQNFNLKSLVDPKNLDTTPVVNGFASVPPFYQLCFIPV"}, "[10]": {"target": "Cytochrome P450 2C19 (Homo sapiens, UniProt P33261)", "sequence (P33261 whole entry)": "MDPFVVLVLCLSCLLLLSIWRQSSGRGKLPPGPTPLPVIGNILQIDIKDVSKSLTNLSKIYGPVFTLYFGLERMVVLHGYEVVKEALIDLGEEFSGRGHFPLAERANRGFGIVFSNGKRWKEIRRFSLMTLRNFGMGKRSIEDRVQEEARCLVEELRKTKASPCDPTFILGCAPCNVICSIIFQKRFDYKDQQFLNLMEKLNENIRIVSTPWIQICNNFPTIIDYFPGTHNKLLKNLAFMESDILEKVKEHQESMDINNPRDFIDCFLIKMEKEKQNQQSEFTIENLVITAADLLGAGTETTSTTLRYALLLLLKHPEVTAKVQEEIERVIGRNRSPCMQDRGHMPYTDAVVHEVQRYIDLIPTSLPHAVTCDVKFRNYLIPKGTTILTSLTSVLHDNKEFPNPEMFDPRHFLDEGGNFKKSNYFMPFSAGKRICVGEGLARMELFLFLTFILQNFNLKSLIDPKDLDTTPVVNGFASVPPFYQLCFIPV", "assay": "Cytochrome panel assay with activity outcomes. Panel member name: p450-cyp2c19 Compounds with AC50 equal or less than 10 uM are considered active", "type": "functional", "conditions": "read-out: AC50"}, "[11]": {"target": "T4, Protein skinhead-1 (Caenorhabditis elegans, UniProt P34707)", "T4 sequence (P34707 whole entry)": "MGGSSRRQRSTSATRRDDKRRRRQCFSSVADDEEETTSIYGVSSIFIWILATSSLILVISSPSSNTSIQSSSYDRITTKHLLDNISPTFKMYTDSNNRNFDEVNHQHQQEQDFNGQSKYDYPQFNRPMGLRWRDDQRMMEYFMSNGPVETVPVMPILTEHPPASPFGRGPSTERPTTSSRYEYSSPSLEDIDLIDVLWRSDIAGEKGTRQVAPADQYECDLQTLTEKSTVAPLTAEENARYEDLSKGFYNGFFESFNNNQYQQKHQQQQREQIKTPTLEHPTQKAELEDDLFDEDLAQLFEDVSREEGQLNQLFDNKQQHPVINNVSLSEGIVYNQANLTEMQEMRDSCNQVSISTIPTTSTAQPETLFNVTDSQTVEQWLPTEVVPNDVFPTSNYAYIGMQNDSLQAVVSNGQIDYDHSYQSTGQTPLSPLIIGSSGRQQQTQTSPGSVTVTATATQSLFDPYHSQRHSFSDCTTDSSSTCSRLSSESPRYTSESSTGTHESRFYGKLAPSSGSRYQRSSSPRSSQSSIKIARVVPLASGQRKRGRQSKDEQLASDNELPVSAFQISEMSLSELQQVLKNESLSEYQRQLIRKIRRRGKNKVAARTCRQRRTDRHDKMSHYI", "type": "functional"}, "[12]": {"target": "T5, Cytochrome P450 1A2 (Homo sapiens, UniProt P05177)", "T5 sequence (P05177 whole entry)": "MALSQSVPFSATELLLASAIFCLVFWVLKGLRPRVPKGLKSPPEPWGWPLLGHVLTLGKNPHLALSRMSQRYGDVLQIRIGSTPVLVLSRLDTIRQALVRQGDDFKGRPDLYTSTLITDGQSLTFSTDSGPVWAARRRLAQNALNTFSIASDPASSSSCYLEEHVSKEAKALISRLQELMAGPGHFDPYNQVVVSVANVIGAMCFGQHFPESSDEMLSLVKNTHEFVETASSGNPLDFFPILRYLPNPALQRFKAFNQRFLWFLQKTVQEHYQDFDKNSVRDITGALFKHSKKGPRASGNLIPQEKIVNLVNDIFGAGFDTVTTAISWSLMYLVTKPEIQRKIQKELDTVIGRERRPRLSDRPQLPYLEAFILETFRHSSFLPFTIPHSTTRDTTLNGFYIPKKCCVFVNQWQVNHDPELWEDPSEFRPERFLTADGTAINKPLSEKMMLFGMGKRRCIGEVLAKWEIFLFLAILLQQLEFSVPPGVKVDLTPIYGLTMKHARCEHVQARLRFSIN"}, "[13]": {"target": "Heat shock protein HSP 90-alpha (Homo sapiens, UniProt P07900)", "type": "functional, organism-based"}, "[14]": {"target": "T6, Endoribonuclease toxin MazF (Escherichia coli K-12, UniProt P0AE70)", "T6 sequence (P0AE70 whole entry)": "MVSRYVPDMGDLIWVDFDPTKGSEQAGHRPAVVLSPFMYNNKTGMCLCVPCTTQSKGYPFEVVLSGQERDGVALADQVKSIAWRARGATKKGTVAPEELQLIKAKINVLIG", "assay": "activation of MazEF endoribonuclease cleavage – biochemical, fluorescence, single-stranded RNA substrate, uHTS hits, dose response (AID 588481)", "type": "functional"}, "[15]": {"target": "T6, Endoribonuclease toxin MazF", "assay": "substrate-only fluorescence increase artefacts – biochemical, single-stranded RNase substrate, counter-screen for MazEF activator project, dose response (AID 588502)", "type": "functional"}},
  "note": "Active and inactive are the calls of the source.",
  "data": [
    {"smiles": "COc1ccc(S(=O)(=O)N2CCN(C(=O)c3cc4c(s3)CCC4)CC2)cc1", "values": [
      {"measurement": "CC50", "setting": "[1]", "result": "> 40 µM (active)"},
      {"measurement": "IC50", "setting": "[2]", "result": "11.3 µM (active)"},
      {"measurement": "IC50", "setting": "[3]", "result": "1.61 µM (active)"}
    ]},
    {"smiles": "COCCN(C(=O)C1CC1)c1nnc(-c2ccc(C)cc2)s1", "values": [
      {"measurement": "IC50", "setting": "[4]", "result": "> 50 µM (inactive)"}
    ]},
    {"smiles": "COC(=O)c1cccc(NC(=O)c2ccc[n+]([O-])c2)c1", "values": [
      {"measurement": "IC50", "setting": "[5]", "result": "18 µM (inactive)"}
    ]},
    {"smiles": "COc1cccc(-c2csc(N3CCN(CC(=O)Nc4ccc5c(c4)OCO5)CC3)n2)c1", "values": [
      {"measurement": "AC50", "setting": "[6]", "result": "17.2 µM (active)"}
    ]},
    {"smiles": "CN(C)c1ccc(C(=S)N2CCN(c3ccc([N+](=O)[O-])cc3)CC2)cc1", "values": [
      {"measurement": "IC50", "setting": "[4]", "result": "> 50 µM (inactive)"}
    ]},
    {"smiles": "O=C(O)c1[nH]c2ccccc2c1C(c1c(F)cccc1Cl)c1c(C(=O)O)[nH]c2ccccc12", "values": [
      {"measurement": "AC50", "setting": "[7]", "result": "69.9 µM (active)"}
    ]},
    {"smiles": "COc1ccc(NC(=O)CN(C)C(=O)CNC(=O)c2sc3ccccc3c2Cl)cc1", "values": [
      {"measurement": "AC50", "setting": "[8]", "result": "41.6 µM (active)"}
    ]},
    {"smiles": "c1ccc(CCNc2nnnn2-c2ccccc2)cc1", "values": [
      {"measurement": "AC50", "setting": "[9]", "result": "11.2 µM (inconclusive)"},
      {"measurement": "AC50", "setting": "[10]", "result": "1.78 µM (inconclusive)"},
      {"measurement": "AC50", "setting": "[6]", "result": "9.58 µM (active)"},
      {"measurement": "IC50", "setting": "[11]", "result": "> 100 µM (inactive)"},
      {"measurement": "AC50", "setting": "[12]", "result": "2.51 µM (inconclusive)"}
    ]},
    {"smiles": "CCOC(=O)c1cc2cc(OCc3ccccc3)ccc2nc1C", "values": [
      {"measurement": "AC50", "setting": "[13]", "result": "3.93 µM (active)"}
    ]},
    {"smiles": "N#C/C(=C\\C1=C(N2CCOCC2)C(=C/c2cccc([N+](=O)[O-])c2)/CC1)C(=O)Nc1ccccc1F", "values": [
      {"measurement": "EC50", "setting": "[14]", "result": "> 99 µM (inactive)"},
      {"measurement": "EC50", "setting": "[15]", "result": "> 99 µM (inactive)"}
    ]},
    {"smiles": "CSc1ccc(-c2nnn(Cc3ccc(C)cc3)n2)cc1", "values": [
      {"measurement": "AC50", "setting": "[8]", "result": "98 µM (active)"}
    ]}
  ]
}
